Columns and labels:
[1] = molecular target: SARS-CoV-2 Main Protease (SARS-CoV-2) (UniProt P0DTD1)
[2] = molecular target: SARS-CoV-2 Main Protease (SARS-CoV-2) (UniProt P0DTD1); remark: listed apart in the source

SMILES	inhibition ([1]; 20.0 µM)	inhibition ([1]; 50.0 µM)	inhibition ([2]; 50.0 µM)	relative solubility at 20 uM	relative solubility at 100 uM	inhibition ([2]; 20.0 µM)	IC50 [1]	IC50 [2]
Cc1cc(Cl)cc(NC(=O)Nc2cccnc2)c1	0%	35.4%	12.7%	1	1	–	–	–
C=CC(=O)N(c1ccc(C(C)(C)CC)cc1)C(C(=O)Nc1cccc(F)c1C)c1cccnc1 (stereo not given)	3.79%	–	31.8%	0.86	0.72	16.3%	–	–
Cc1ccc(NC(=O)Cc2cccc(Cl)c2)cn1	–	0%	3.35%	0.99	1	0.36%	–	–
O=C(Cc1ccc(Cl)s1)Nc1cccnc1	0%	–	11.5%	1	1	0.922%	–	–
C=CC(=O)N(c1cc(C(C)(C)C)on1)C(C(=O)NCCc1cccc(F)c1)c1cccnc1 (stereo not given)	–	100%	31.3%	0.98	0.97	16.7%	10.9 µM	–
O=C(CCl)Nc1nc2c(S(=O)(=O)NCCc3ccccc3)cccc2s1	–	80.3%	74.5%	0.89	0.66	58%	8.55 µM	13.9 µM
CS(=O)(=O)Nc1cccc(C(=O)OCC(=O)Nc2cccc(N3CCCC3=O)c2)c1	–	0%	3.7%	0.98	0.99	5.16%	–	–
O=C(Cc1c[nH]c2ncccc12)N1CCC(N2CCCS2(=O)=O)CC1	0%	–	-1.92%	1	1.01	18.5%	–	–
Cc1ccncc1NC(=O)[C@@H]1CNC(=O)O1 (stereo in doubt)	–	8.86%	1.36%	1	1	1.35%	–	–
COCCc1ccc(Cl)cc1CN1CCN(C(=O)CCl)CC1	–	100%	95.1%	1	0.99	96.1%	2.42 µM	–
Cc1ccncc1NS(=O)(=O)Cc1cccc(Cl)c1	–	19%	9.77%	1	0.99	4.3%	–	–
C=CC(=O)N(c1cc(C(C)(C)C)on1)C(C(=O)Nc1ccc(OC)cc1C)c1cccnc1 (stereo not given)	14.3%	–	23.4%	1	0.91	12.9%	–	–
CCN(Cc1cccc(-c2ccncc2)c1)C(=O)Cc1noc2ccccc12	0%	–	-15.8%	0.98	0.85	-25.4%	–	–
Cc1ccccc1CNc1ccccc1NC(=O)C(O)c1cccnc1 (stereo not given)	4.59%	35.7%	7.28%	0.95	0.94	-0.056%	–	–
Cc1ccncc1NC(=O)[C@@]12COC[C@@H]1C2 (stereo in doubt)	–	0%	-2.2%	1	1	-0.441%	–	–
Cc1ccncc1NC(=O)Cc1cccc(Br)c1	–	98.3%	77.7%	1.01	1	56.2%	15.9 µM	–
CN(CC1COc2ccccc2O1)C(=O)c1cc(=O)[nH]c2cc(F)ccc12 (stereo not given)	–	0%	15.3%	0.98	0.99	-3.67%	–	–
O=C(Nc1ccc([N+](=O)[O-])cc1Cl)c1cccc(Cl)c1	1.31%	–	-11.4%	0.76	0.57	-10.8%	–	–
Cn1cncc1CNC(=O)Nc1cccc(OCC(F)F)n1	0%	28.4%	36.2%	1	1	–	–	–
CN(CC1COc2ccccc2O1)C(=O)c1cc(=O)[nH]c2ccc(F)cc12 (stereo not given)	–	0%	1.67%	0.99	0.99	-4.21%	–	–
CC(C)c1scnc1NC(=O)C1CCOc2ccc(Cl)cc21 (stereo not given)	–	0%	6.85%	1	0.99	10%	–	–
CC(c1cccc(NC(=O)Cc2cnccc2Cl)c1)N1CCOCC1 (stereo not given)	0%	3.87%	3.92%	0.97	0.92	2.12%	–	–
Cc1ccncc1NC(=O)CC(O)C1CC1 (stereo not given)	–	2.72%	1.39%	1	1.01	-48%	–	–
NC(=O)C1Cc2ccccc2N(CC(=O)Nc2cnccn2)C1 (stereo not given)	0%	0%	6.19%	1	0.93	0.0292%	–	–
Cc1ccc(S(=O)(=O)N2CCN(C(=O)c3cc(=O)[nH]c4ccc(Cl)cc34)CC2)cc1	–	11.5%	-0.533%	0.97	0.88	-0.869%	–	–

SMILES	inhibition ([1]; 20.0 µM)	inhibition ([1]; 50.0 µM)	inhibition ([2]; 50.0 µM)	relative solubility at 20 uM	relative solubility at 100 uM	inhibition ([2]; 20.0 µM)	IC50 [1]	IC50 [2]
C=CC(=O)N(c1cc(C(C)(C)C)n[nH]1)C(C(=O)Nc1c(C)cccc1CC)c1cccnc1 (stereo not given)	0%	–	4.71%	0.92	0.78	4.05%	–	–
Cc1ccc(NC(=O)Cc2cc3cccnc3[nH]2)s1	–	7.42%	8.28%	1	0.96	23.7%	–	–
C=CC(=O)N(c1ccc(C(C)(C)C)cc1)C(C(=O)NCCOC)c1cccnc1 (stereo not given)	25.7%	70.3%	52.7%	1	1	35.7%	–	–
O=C1Nc2c(Br)cccc2C1=O	–	67.4%	-4.45%	0.99	0.81	-4.89%	43.1 µM	–
CCC(=O)O[C@@H](OP(=O)(CCCCc1ccccc1)CC(=O)N1C[C@H](C2CCCCC2)C[C@H]1C(=O)O)C(C)C (stereo in doubt)	3.17%	–	-0.253%	1	0.92	4.91%	–	–
Cc1ccnc2[nH]c(CC3CCN(C(=O)CCl)CC3)nc12	–	100%	18.1%	1	1	5.18%	29.7 µM	–
Cc1ccc(NC2CCN(c3ccc(S(N)(=O)=O)cc3)CC2)cc1	28.4%	40%	5.62%	0.92	0.84	2.67%	–	–
C=CC(=O)N(c1ccc(C(C)(C)C)cc1)C(C(=O)NC(C)(C)C)c1cncc(Br)c1 (stereo not given)	0%	0%	-13.8%	0.99	0.97	14.6%	–	–
O=C(C1CCN(c2ccncc2)CC1)N1CCCCC1	0%	-0.3%	-18.6%	0.99	1	–	–	–
O=C(Cn1cccn1)N1CCN(S(=O)(=O)c2cccc(F)c2)CC1	0%	–	1%	1	1	-11.9%	–	–
O=C(Nc1cccc(-c2cc[nH]n2)c1)C(O)c1cccnc1 (stereo not given)	0%	0%	10.4%	1	1	–	–	–
COc1ccc(S(=O)(=O)N2CCN(C(=O)c3cc(=O)[nH]c4cc(F)ccc34)CC2)cc1	–	0%	-3.27%	0.87	0.9	5.98%	–	–
Cc1ccncc1NC(=O)CCOC1CC1	–	0%	22%	1	1	8.26%	–	–
Cc1ccncc1-c1nc(-c2cccc(Cl)c2)no1	–	22.9%	5.25%	1	0.99	3.58%	–	–
O=C(Nc1cccnc1)c1cc(Cl)ccc1O	0%	–	22.8%	1	0.89	18.3%	–	–
C=CC(=O)N(c1ccc(C2(C)CC2)cc1)C(C(=O)Nc1c(C)cccc1CC)c1cccnc1 (stereo not given)	0%	20.4%	20.9%	0.8	0.68	–	–	–
O=C(Cc1cc(Cl)c2c(c1)OCCO2)Nc1cnccc1-c1ccccc1	–	0%	-10.4%	0.88	0.94	-45.1%	–	–
O=C(Cc1ccc(O)cc1)Nc1cccc2cc[nH]c12	–	0%	-4.9%	1	1	-9.57%	–	–
Cc1ccncc1NC(=O)Cc1ccc(S(N)(=O)=O)cc1	6.42%	-0.94%	10.9%	1	1	4.76%	–	–
O=C(c1cc2sccc2s1)N1CCOC(CN2CCOCC2)C1 (stereo not given)	–	2.34%	7.85%	1	0.99	4.6%	–	–
CCC(NC(=O)C(C)n1cncn1)c1ccccc1OCC(=O)N1CCCC1 (stereo not given)	0%	0%	0.701%	1	0.99	-0.907%	–	–
N#Cc1cccc(NC(=O)Cc2c[nH]c3ncccc23)c1	0%	–	2.91%	1	0.95	2.74%	–	–
C=CC(=O)N(c1ccc(N(C)C)c(C)c1)C(C(=O)Nc1ccc(OC)cc1)c1cccnc1 (stereo not given)	0%	2.05%	7.05%	0.88	0.77	2.56%	–	–
C=CC(=O)N(C1CCC2(CCCC2)CC1)C(C(=O)NC(C)(C)C)c1cccnc1 (stereo not given)	0%	–	6.94%	1	0.97	-5.6%	–	–
NS(=O)(=O)c1ccc(N2CCC(c3ccsc3)CC2)cc1	37.4%	42%	17.1%	0.98	0.76	7.4%	–	–

SMILES	inhibition ([1]; 20.0 µM)	inhibition ([1]; 50.0 µM)	inhibition ([2]; 50.0 µM)	relative solubility at 20 uM	relative solubility at 100 uM	inhibition ([2]; 20.0 µM)	IC50 [1]	IC50 [2]
COC(=O)C(c1ccccc1Cl)N1CCC2SC(=O)C=C2C1 (stereo not given)	–	11.5%	-5.13%	0.82	0.81	-46.2%	–	–
C=CC(=O)N(c1ccc(N(C)C)c(C)c1)C(C(=O)Nc1ccccc1Br)c1cccnc1 (stereo not given)	0%	–	8.13%	0.86	0.79	2.84%	–	–
O=C1Nc2ccc(Br)cc2C1=O	–	66.1%	-1.05%	1	0.99	-2.12%	30.3 µM	–
O=C1[C@H](Nc2nccn3cnnc23)CCN1c1cccc(Cl)c1 (stereo in doubt)	–	0%	5.29%	1	0.98	3.55%	–	–
O=C(NCCc1cccc2ccccc12)c1cc(=O)[nH]c2ccccc12	–	7.36%	4.42%	0.87	0.73	-40.9%	–	–
O=C(Nc1ccc(N(Cc2ccsc2)C(=O)Cn2nnc3ccccc32)cc1)C1CC1	–	62.2%	70.2%	0.9	0.59	69%	28.4 µM	–
CCOC(=O)[C@@H](CCc1ccccc1)N[C@H](C)C(=O)Nc1cccc(CN2CCCC2)c1 (stereo in doubt)	–	6.6%	1.33%	0.99	0.97	-3.55%	–	–
CS(=O)(=O)N(CCc1ccccc1)CC1CCN(C(=O)CCl)CC1	–	73.3%	26.1%	0.96	0.89	23.9%	–	–
COC1(CC(=O)Nc2cnccc2C)CC1	–	0%	13.8%	1.01	1	-5.47%	–	–
O=C(NCCN1CCN(C(=O)CCl)CC1)c1ccccc1	0.871%	–	18.1%	1	1.01	0.205%	–	–
Cc1cccc(NC(=O)C(C#N)C(=O)C2CC2)c1 (stereo not given)	0.422%	0.517%	5.88%	0.99	0.99	–	–	–
C=CC(=O)N(c1ccc(C2CCOC2)cc1)C(C(=O)NC(C)(C)C)c1cccnc1 (stereo not given)	0%	–	4.28%	1.01	1.01	-11.9%	–	–
C=CC(=O)N(c1ccc(N(C)C)c(C)c1)C(C(=O)Nc1cccc(CC)c1)c1cccnc1 (stereo not given)	0%	–	11.7%	0.85	0.68	7.05%	–	–
NS(=O)(=O)c1ccc(N2CCC(CO)CC2)cc1	-1.13%	2.83%	7.03%	1	1	3.95%	–	–
O=C(Nc1cccnc1)Nc1cncc(Cl)c1	0%	-0.075%	16.8%	1	1	–	–	–
CC(=O)N[C@@H](Cc1ccc(O)cc1)C(=O)NCc1ccc(Br)cc1 (stereo in doubt)	0%	–	-24.8%	1	0.99	-20.1%	–	–
Nc1ncncc1CNC(=O)Nc1ccccc1OCCn1ccnc1	1.47%	9.19%	15.8%	1	1	–	–	–
COCC1CCN(c2ccc(S(N)(=O)=O)cc2)CC1	22.3%	44%	-23.1%	0.99	1	–	–	–
Cc1ccncc1NC(=O)Nc1cccc(C#N)c1	23.8%	55.7%	44.3%	1	0.97	19.4%	49.3 µM	–
Cc1ccc(Oc2cccc(NC(=O)NCc3cnnn3C)c2)c(C)c1	0%	–	-12.8%	0.96	0.75	-10.7%	–	–
Cc1ccncc1NC(=O)Cn1ccc2ccc(Cl)cc21	–	77.4%	27%	0.99	0.98	30.6%	20 µM	–
CCOc1ccccc1/C=C1/C(=O)NC(=O)c2ccccc21	–	39.6%	4.82%	0.97	0.68	-36.4%	–	–
Nc1nnnn1-c1cccc(C(=O)Nc2c(-c3cccnc3)nc3ccccn23)c1	11%	18.3%	2.69%	0.98	0.79	-2.5%	–	–
CCN(C)CC1CCN(c2ccc(S(N)(=O)=O)cc2)CC1	0%	0%	6.02%	1	0.98	3.39%	–	–
O=C(CCl)N1CCCC(N(CC2CCCCC2)C2CCC(O)CC2)C1 (stereo not given)	–	24.9%	7.36%	1	1	-11.8%	–	–
